According to patent publication US11795454B2, “Targeted delivery system” (Cedars-Sinai Medical Center, priority 2009, dated 2023):
Like-named read-outs stand apart in the source and are kept apart here.

B1: HerDox: self-assembled nanoparticle of oligonucleotide duplex, doxorubicin and HerPBK10 (conjugate)
chain: LPPRLKEMKSQESAAGSKLVLRCETSSEYSSLRFKWFKNGNELNRKNKPQNIKIQKKPGKSELRINKASLADSGEYMCKVISKLGNDSASANITIVESNEIITGMPASTEGAYVSSESPIRISVSTEGANTSSSTSTSTTGTSHLVKCAEKEKTFCVNGGECFMVKDLSNPSRYLCKCQPGFTGARCTENVPMKVQNQEKAEELYMRRAAMYEEGPPPSYESVVSAAPVAAALGSPFDAPLDPPFVPPRYLRPTGGRNSIRYSELAPLFDTTRVYLVDNKSTDVASLNYQNDHSNFLTTVIQNNDYSPGEASTQTINLDDRSHWGGDLKTILHTNMPNVNEFMFTNKFKARVMVSRLPTKDNQVELKYEWVEFTLPEGNYSETMTIDLMNNAIVEHYLKVGRQNGVLESDIGVKFDTRNFRLGFDPVTGLVMPGVYTNEAFHPDIILLPGCGVDFTHSRLSNLLGIRKRQPFQEGFRITYDDLEGGNIPALLDVDAYQASLKDDTEQGGGGAGGSNSSGSGAEENSNAAAAAMQPVEDMNDHAIRGDTFATRAEEKRAEAEAAAEAAAPAAQPEVEKPQKKPVIKPLTEDSKKRSYNLISNDSTFTQYRSWYLAYNYGDPQTGIRSWTLLCTPDVTCGSEQVYWSLPDMMQDPVTFRSTRQISNFPVVGAELLPVHSKSFYNDQAVYSQLIRQFTSLTHVFNRFPENQILARPPAPTITTVSENVPALTDHGTLPLRNSIGGVQRVTITDARRRTCPYVYKALGIVSPRVLSSRTFKKKKKKKKKK

How the values were obtained:
[1] = system: MDA-MB-435(HER2+,GFP−)/MDA-MB-231(HER2−,GFP+) cell culture; test: Targeting in a mixed HER2+/HER2− cell culture; format: cell-based, human; details: 0.5 uM, day 2
Method: All treatments, N=3. FIG. 27A. Comparing cytotoxicity to HER2+ (MDAMB-435) and HER2− (MDA-MB-231) cells in separate cultures. Left, Relative survival (as % of untreated cells) on day 3 of treatment. Right, Micrograph of live cells after treatment. Control, mock (HBS) treatment. FIG. 27B, Receptor specificity of cytotoxicity. […] FIG. 27C, Toxicity to cells displaying differential HER2. Cytotoxicities from HerDox titrations were assessed on each cell line by metabolic assay and confirmed by crystal violet stain on day 3 of treatment. CD50 values (shown in log scale) were determined by non-linear regression analyses of HerDox killing curves using GraphPad Prism. The relative HER2 level of each cell line is shown next to each CD50 value. FIG. 27D, Targeting in a mixed MDA-MB-435(HER2+,GFP−)/MDA-MB-231(HER2−,GFP+) cell culture. Survival was determined by calculating the relative doubling time (DT) of experimental (exp) cells normalized by mock-treated (con) cells based on crystal violet stains (total cells) and GFP fluorescence (MDAMB-231 cells), and applying DTMDA-MB-435=DTTotal-DTMDA-MB-231 as previously described. Relative survival is shown for Day 2 of treatment. […] U251 cells were treated once with the indicated HerDox (and competitive inhibitor where indicated) or Dox doses and measured for cell survival at the indicated time points after treatment. * P<0.05 compared to Mock. […]

MDA-MB-231 (HER2−) cells = test: HerDox targeted toxicity in vitro, separate cultures; format: cell-based, human; details: MDA-MB-231, day 3
Method: All treatments, N=3. FIG. 27A. Comparing cytotoxicity to HER2+ (MDAMB-435) and HER2− (MDA-MB-231) cells in separate cultures. Left, Relative survival (as % of untreated cells) on day 3 of treatment. Right, Micrograph of live cells after treatment. Control, mock (HBS) treatment. FIG. 27B, Receptor specificity of cytotoxicity. […] FIG. 27C, Toxicity to cells displaying differential HER2. Cytotoxicities from HerDox titrations were assessed on each cell line by metabolic assay and confirmed by crystal violet stain on day 3 of treatment. CD50 values (shown in log scale) were determined by non-linear regression analyses of HerDox killing curves using GraphPad Prism. The relative HER2 level of each cell line is shown next to each CD50 value. FIG. 27D, Targeting in a mixed MDA-MB-435(HER2+,GFP−)/MDA-MB-231(HER2−,GFP+) cell culture. Survival was determined by calculating the relative doubling time (DT) of experimental (exp) cells normalized by mock-treated (con) cells based on crystal violet stains (total cells) and GFP fluorescence (MDAMB-231 cells), and applying DTMDA-MB-435=DTTotal-DTMDA-MB-231 as previously described. Relative survival is shown for Day 2 of treatment. FIG. 27E, Targeted glioma cell death in vitro. U251 cells were treated once with the indicated HerDox (and competitive inhibitor where indicated) or Dox doses and measured for cell survival at the indicated time points after treatment. * P<0.05 compared to Mock.
For all in vitro treatments, cell lines were grown for ˜36 h after plating (104/well in 96-well dishes) to allow receptor re-expression, followed by media replacement with new media containing indicated constructs in reduced volume at the indicated final molarities for 4 h with rocking, followed by supplementation with additional media and continued growth for the indicated time periods. Except for the experiments performed on the U251 glioma cells (which received a one-time treatment), cells received these treatments daily while separate sets of wells were assessed for cell death by either metabolic assay (CellTiter Promega Corporation, Madison, WI, USA) or crystal violet stain each day. Where indicated, cells received competitive inhibitor (eHRG) at 10× molar excess for 30 min-1 h at 4° C. before treatment. Treatment of mixed (HER2+/HER2−) cell cultures with HerDox or Dox (0.5 uM), and cell surface receptor subunit level determination were performed as previously described.

[2] = mouse, in vivo
Text: Histology of myocardia from treated mice. Micrographs show representative H&E stained specimens from treated mice.
Female immunodeficient (nu/nu) mice (6-8 weeks; Charles River Laboratories International, Wilmington, MA, USA) received subcutaneous bilateral flank injections of 1×10^7 indicated cells and monitored until tumors reached ˜200-300 mm3, at which point the following treatments were initiated. […] To assess therapeutic efficacy, a new group of tumor-bearing mice received daily i.v. (tail vein) injections of HerDox or Dox at indicated doses for 7 days followed by continued monitoring of tumor volumes (assessed by measuring tumor length and width using calipers, and applying LxW2), animal weights, and heart function. […] Cardiac function in anesthetized mice was evaluated by a Vevo 770 High-Frequency Ultrasound system (VisualSonics, Toronto, Canada). Heart rate and body temperature were monitored. Superficial hair was removed from the region of interest with a depilatory cream (Nair) before imaging. The 2-dimensional guided M-mode images of the left ventricle were obtained in the short-axis view at the papillary level with the mouse in the supine position. All primary measurements were traced manually and digitized by goal-directed software installed within the echocardiograph. Three beats were averaged for each measurement. All measurements were done from leading edge to leading edge according to the American Society of Echocardiography guidelines. At animal study completion, tissue harvested from euthanized mice were fixed in 4% paraformaldehyde/PBS at 4° C. for 24 h followed by transfer into 20% sucrose/PBS and storage at −80° C. before immunohistochemical processing. Specimens and hematoxylin/eosin staining were prepared by AML Laboratories, Inc., Baltimore, MD, USA.

[3] = Method: FIG. 26A. Stability in blood. […] N=3. […] Control conditions preventing digest include using heat-inactivated (HI) serum and 0° C. incubation. FIG. 26C. Assessing Dox retention in serum.
To study stability in blood, HerDox or Dox (60 uM each) were incubated in equivalent volumes of whole blood (containing 0.5 mM EDTA to prevent coagulation and freshly collected from the aorta of an anesthetized mouse following IACUC-approved procedures) for up to 60 min at 37° C., followed by centrifugation through 10K mwco filters. Retentate and filtrate fluorescences were extrapolated against a Dox calibration curve performed in blood plasma to correct for plasma-induced fluorescence shift. […] Control conditions preventing digest include using heat-inactivated serum and 0° C. incubation. […] Filtrates were collected and membranes washed 3× with HBS before collection and fluorescence measurement of retentates. All fluorescence spectra were obtained using a 515 nm cutoff filter.

MDA-MB-435 cells = test: Uptake and intracellular trafficking, confocal fluorescence microscopy; format: cell-based, human; details: 0.5 uM final Dox concentration
Method: FIG. 28A. […] Dox fluorescence (magenta) is overlaid on DIC images. FIG. 28D. […] Relaxed (nicked) and supercoiled (sc) plasmid forms are indicated.
General procedures: MDA-MB-435 cells were plated ˜36 h before receiving HerDox or Dox (0.5 uM final Dox concentration) in fresh media containing the indicated constructs. For live cell assays, the cells (plated in chambers) were imaged at the indicated time points after treatment, under brightfield or DIC (where indicated) and fluorescence modes to identify the cell structure and Dox fluorescence, respectively. For fixed cell assays, the cells were plated on cover slips in 24-well plates (1×10^5 cells/well) ˜36 h before receiving HerDox or Dox in fresh complete media at 37° C., and separate samples fixed and processed for immunofluorescence against HerPBK10 following established procedures. A Leica SP2 laser-scanning confocal fluorescence microscope was used for fixed and live cell imaging.
The ability to visualize nuclear Dox fluorescence after cell exposure to free Dox has been used frequently to detect Dox uptake in cells, and has been attributed to interaction with histones. To determine whether these localization differences indicate that Dox remains attached to HerPBK10 during uptake, the inventors used a counterstain for HerPBK10.

Molecule | cell growth in mixed cell culture [1] | toxicity / survival (MDA-MB-231 (HER2−) cells) | myocardial histology [2] | stroke volume, cardiac output, left ventricular internal dimension and volume ([2]; 0.004 mg/kg) | Dox loss from retentates [3] | protection of the DNA duplex from serum degradation [3] | remaining free Dox (weak or non-specific binding to serum proteins) ([3]; mouse, serum) | subcellular localization of Dox fluorescence (MDA-MB-435 cells) | Dox loss from retentates ([3]; 100% mouse serum, 30 min at 37° C., 10K mwco)
COc1cccc2c1C(=O)c1c(O)c3c(c(O)c1C2=O)C[C@@](O)(C(=O)CO)C[C@@H]3O[C@H]1C[C@H](N)[C@H](O)[C@H](C)O1.Cl [Dox, Doxorubicin-HCl, reference compound] | reduced efficacy | no preference | myofibrillar degeneration | modest to marked reductions | ~70% | partially protected the DNA from serum degradation | ~30% | detectable at the nuclear periphery immediately after administration | 
B1 | substantially reduced HER2+ but not HER2− cell growth |  |  |  |  |  |  | nuclear accumulation by 60 min | no Dox loss was detected
